# Reference: patent publication US20240166635A1, “AMINOHETEROARYL KINASE INHIBITORS” (Anrui Biomedical Technology (Guangzhou) Co.,Ltd., priority 2020, published 2024)
# What was measured:
# Format in all cases: biochemical
# CDK7/CyclinH/MAT1 = CDK7/CyclinH/MAT1 (Homo sapiens (Human), UniProt P50613); assay: CDK7/CyclinH/MAT1 kinase inhibitory activity (Caliper mobility shift)
# CDK1/CyclinB = CDK1/CyclinB (Homo sapiens (Human), UniProt P06493); assay: CDK1/CyclinB kinase inhibitory activity (Caliper mobility shift); conditions: read-out: CDK1/Cyclin B1 IC50
# Sequence of CDK1/CyclinB (P06493 whole entry): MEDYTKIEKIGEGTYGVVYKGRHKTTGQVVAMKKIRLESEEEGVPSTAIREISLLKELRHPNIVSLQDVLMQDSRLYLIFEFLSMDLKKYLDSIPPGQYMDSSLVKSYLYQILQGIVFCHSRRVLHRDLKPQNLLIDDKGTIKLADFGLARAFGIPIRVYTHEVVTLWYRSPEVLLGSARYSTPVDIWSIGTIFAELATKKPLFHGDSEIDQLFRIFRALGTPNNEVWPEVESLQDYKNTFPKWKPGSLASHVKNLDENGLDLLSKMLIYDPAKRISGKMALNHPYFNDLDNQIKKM
# Sequence of CDK1/CyclinB (P14635 whole entry partner): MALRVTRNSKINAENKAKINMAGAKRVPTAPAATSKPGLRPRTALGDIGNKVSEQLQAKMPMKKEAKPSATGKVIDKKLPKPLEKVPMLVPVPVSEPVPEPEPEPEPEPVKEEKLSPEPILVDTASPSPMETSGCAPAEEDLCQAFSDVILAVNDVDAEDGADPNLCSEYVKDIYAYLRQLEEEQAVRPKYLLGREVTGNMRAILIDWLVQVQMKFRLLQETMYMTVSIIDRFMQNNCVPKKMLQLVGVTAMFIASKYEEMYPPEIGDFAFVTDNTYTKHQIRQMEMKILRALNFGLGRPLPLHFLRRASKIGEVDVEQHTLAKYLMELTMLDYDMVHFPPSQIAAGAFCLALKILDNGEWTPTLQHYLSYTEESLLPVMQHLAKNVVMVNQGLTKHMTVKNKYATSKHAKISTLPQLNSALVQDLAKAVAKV
# CDK4/Cyclin D1 = CDK4/Cyclin D1 (Homo sapiens (Human), UniProt P11802); assay: CDK4/CyclinD1 kinase inhibitory activity (Caliper mobility shift)
# Sequence of CDK4/Cyclin D1 (P11802 whole entry): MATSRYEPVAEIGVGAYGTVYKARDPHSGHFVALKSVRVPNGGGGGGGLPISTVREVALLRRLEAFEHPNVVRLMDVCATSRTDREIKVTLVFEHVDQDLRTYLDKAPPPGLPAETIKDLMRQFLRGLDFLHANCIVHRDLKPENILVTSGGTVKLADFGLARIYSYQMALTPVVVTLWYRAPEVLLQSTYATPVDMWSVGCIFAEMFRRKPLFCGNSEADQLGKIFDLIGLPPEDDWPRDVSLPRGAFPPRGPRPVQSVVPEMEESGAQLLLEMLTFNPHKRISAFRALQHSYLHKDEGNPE
# Sequence of CDK4/Cyclin D1 (P24385 whole entry partner): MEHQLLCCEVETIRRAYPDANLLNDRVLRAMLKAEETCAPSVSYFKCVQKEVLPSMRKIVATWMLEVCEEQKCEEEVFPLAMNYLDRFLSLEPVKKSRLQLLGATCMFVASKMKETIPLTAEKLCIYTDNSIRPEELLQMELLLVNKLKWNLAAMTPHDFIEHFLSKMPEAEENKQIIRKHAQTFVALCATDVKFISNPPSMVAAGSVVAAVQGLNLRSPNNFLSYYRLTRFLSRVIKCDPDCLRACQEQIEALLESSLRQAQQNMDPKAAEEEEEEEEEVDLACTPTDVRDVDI
# CDK6/CyclinD1 = CDK6/CyclinD1 (Homo sapiens (Human), UniProt Q00534); assay: CDK6/CyclinD1 kinase inhibitory activity (Caliper mobility shift); conditions: read-out: CDK6/Cyclin D1 IC50
# Sequence of CDK6/CyclinD1 (Q00534 whole entry): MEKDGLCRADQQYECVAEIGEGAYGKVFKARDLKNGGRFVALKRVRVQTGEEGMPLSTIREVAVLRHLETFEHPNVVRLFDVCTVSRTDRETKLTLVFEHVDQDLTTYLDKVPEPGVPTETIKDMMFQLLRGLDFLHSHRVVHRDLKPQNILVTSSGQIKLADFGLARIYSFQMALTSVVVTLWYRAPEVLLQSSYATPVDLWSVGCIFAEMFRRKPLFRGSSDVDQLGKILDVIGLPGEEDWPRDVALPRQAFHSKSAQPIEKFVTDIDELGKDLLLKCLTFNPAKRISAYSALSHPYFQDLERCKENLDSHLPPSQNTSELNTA
# Sequence of CDK6/CyclinD1 (P24385 whole entry partner): as the sequence (P24385 whole entry partner) above
# CDK2/CyclinE1 = CDK2/CyclinE1 (Homo sapiens (Human), UniProt P24941); assay: CDK2/CyclinE1 kinase inhibitory activity (Caliper mobility shift); conditions: read-out: CDK2/Cyclin El IC50
# CDK9/CyclinT1 = CDK9/CyclinT1 (Homo sapiens (Human), UniProt P50750); assay: CDK9/CyclinT1 kinase inhibitory activity (Caliper mobility shift); conditions: read-out: CDK9/Cyclin T1 IC50
# Sequence of CDK9/CyclinT1 (P50750 whole entry): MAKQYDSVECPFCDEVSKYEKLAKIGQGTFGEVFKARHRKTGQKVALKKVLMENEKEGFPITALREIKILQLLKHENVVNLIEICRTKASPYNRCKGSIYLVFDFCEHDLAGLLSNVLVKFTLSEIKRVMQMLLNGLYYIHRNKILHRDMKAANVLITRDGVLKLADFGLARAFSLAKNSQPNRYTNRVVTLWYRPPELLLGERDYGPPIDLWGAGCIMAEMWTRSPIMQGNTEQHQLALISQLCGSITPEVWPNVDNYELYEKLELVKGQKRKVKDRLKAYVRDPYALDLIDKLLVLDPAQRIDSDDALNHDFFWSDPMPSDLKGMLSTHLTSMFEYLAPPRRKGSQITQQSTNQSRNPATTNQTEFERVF
# Sequence of CDK9/CyclinT1 (O60563 whole entry partner): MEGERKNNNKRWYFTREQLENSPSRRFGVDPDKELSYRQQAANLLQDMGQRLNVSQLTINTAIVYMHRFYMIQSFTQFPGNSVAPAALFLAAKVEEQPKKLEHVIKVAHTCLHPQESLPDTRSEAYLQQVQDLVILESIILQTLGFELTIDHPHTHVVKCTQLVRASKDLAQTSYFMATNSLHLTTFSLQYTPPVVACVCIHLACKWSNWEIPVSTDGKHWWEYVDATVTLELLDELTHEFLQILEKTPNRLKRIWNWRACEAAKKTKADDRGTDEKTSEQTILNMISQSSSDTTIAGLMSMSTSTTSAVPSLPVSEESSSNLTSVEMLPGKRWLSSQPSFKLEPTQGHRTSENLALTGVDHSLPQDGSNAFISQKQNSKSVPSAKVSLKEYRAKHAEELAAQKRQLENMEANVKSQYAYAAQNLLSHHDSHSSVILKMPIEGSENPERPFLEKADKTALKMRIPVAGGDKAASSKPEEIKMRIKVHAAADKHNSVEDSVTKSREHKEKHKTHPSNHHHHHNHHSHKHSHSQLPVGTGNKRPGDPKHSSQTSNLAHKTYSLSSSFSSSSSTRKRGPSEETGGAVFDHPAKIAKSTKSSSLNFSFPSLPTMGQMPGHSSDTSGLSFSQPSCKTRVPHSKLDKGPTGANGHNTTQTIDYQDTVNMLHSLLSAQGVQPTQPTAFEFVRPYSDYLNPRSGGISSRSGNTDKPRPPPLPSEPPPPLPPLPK
# Sequence of CDK7/CyclinH/MAT1 (P50613 whole entry): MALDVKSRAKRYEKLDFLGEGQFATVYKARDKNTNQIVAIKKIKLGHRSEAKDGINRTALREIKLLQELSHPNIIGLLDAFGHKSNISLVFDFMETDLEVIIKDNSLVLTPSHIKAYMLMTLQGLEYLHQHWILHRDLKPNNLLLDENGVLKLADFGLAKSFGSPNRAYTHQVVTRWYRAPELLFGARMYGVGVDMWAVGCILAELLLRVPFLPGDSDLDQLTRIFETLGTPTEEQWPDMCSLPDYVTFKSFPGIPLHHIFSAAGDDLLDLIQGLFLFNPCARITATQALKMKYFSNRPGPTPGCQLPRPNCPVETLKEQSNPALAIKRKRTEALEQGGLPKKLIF
# Sequence of CDK7/CyclinH/MAT1 (P51946 whole entry partner): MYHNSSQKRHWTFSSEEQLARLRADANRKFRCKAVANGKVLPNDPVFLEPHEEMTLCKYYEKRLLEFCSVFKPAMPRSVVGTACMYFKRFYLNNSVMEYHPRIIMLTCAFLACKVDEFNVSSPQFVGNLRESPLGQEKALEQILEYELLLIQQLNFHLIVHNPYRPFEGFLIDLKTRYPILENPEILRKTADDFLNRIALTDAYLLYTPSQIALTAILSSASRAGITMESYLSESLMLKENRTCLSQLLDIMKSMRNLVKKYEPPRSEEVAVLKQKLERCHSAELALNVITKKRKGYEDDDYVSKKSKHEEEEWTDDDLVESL
# Sequence of CDK7/CyclinH/MAT1 (P51948 whole entry partner): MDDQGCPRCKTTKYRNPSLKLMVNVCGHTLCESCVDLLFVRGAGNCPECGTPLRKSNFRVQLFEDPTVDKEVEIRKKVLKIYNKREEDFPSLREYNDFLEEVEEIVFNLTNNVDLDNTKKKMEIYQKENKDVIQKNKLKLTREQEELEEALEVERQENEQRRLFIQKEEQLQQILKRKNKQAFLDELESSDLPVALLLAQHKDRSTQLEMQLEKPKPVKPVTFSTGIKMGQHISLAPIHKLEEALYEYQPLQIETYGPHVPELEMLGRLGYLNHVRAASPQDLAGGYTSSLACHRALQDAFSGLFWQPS
SMILES,IC50 (CDK7/CyclinH/MAT1),IC50 (CDK1/CyclinB),IC50 (CDK4/Cyclin D1),IC50 (CDK6/CyclinD1),IC50 (CDK2/CyclinE1),IC50 (CDK9/CyclinT1)
"C[C@]1(O)CC(F)(F)C[C@H]1Oc1nc(NC2CCN(S(C)(=O)=O)CC2)ncc1C#N (relative stereo) [Example 4a, cis-4-((4,4-difluoro-2-hydroxy-2-methylcyclopentyl)oxy)-2-((1-(methylsulfonyl)piperidin-4-yl)amino)pyrimidine-5-carbonitrile]",10 to 100 nM,10 to 100 nM,10 to 100 nM,< 10 nM,< 10 nM,100 to 1000 nM
"C=Cc1cnc(Nc2ccc(S(N)(=O)=O)cc2)nc1OC1CCCC1O (single isomer, unassigned) [Example 155a]",100 to 1000 nM,10 to 100 nM,100 to 1000 nM,10 to 100 nM,< 10 nM,10 to 100 nM
"C[C@]1(O)COC[C@H]1Oc1nc(NC2CCN(S(C)(=O)=O)CC2)ncc1C(F)(F)F (relative stereo) [Example 104a, cis-3-methyl-4-((2-((1-(methylsulfonyl)piperidin-4-yl)amino)-5-(trifluoromethyl)pyrimidin-4-yl)oxy)tetrahydrofuran-3-ol]",10 to 100 nM,10 to 100 nM,10 to 100 nM,10 to 100 nM,< 10 nM,100 to 1000 nM
"CS(=O)(=O)N1CCC(Nc2ncc(Br)c(OC3CCCCCC3O)n2)CC1 (single isomer, unassigned) [Example 145b]",10 to 100 nM,10 to 100 nM,10 to 100 nM,10 to 100 nM,< 10 nM,100 to 1000 nM
"N#Cc1cnc(Nc2ccc(S(N)(=O)=O)cc2)nc1O[C@@H]1CCCC[C@@H]1O (single isomer, unassigned) [Example 2a, cis-4-((5-cyano-4-((2-hydroxycyclohexyl)oxy)pyrimidin-2-yl)amino)benzenesulfonamide]",≥ 1000 nM,10 to 100 nM,10 to 100 nM,10 to 100 nM,< 10 nM,100 to 1000 nM
"Cn1cnc(S(=O)(=O)N2CCC(Nc3ncc(C#N)c(OC4CCCC4(C)O)n3)CC2)c1 (single isomer, unassigned) [Example 50a]",100 to 1000 nM,< 10 nM,< 10 nM,< 10 nM,< 10 nM,100 to 1000 nM
CC1(COc2nc(Nc3ccc(S(N)(=O)=O)cc3)ncc2C#N)CCCC1 [Example 12],≥ 1000 nM,10 to 100 nM,< 10 nM,100 to 1000 nM,< 10 nM,10 to 100 nM
"CC1(NS(=O)(=O)c2ccc(Nc3ncc(Br)c(O[C@@H]4CCC[C@@H]4O)n3)cc2)COC1 (single isomer, unassigned) [Example 131a, cis-4-((5-bromo-4-((2-hydroxycyclopentyl)oxy)pyrimidin-2-yl)amino)-N-(3-methyloxetan-3-yl)benzenesulfonamide]",100 to 1000 nM,10 to 100 nM,100 to 1000 nM,100 to 1000 nM,< 10 nM,100 to 1000 nM
"[2H]C1([2H])CC(O)C(Oc2nc(Nc3ccc(S(=O)(=O)NC([2H])([2H])[2H])cc3)ncc2C(F)(F)F)C1 (single isomer, unassigned) [Example 110a]",100 to 1000 nM,10 to 100 nM,100 to 1000 nM,10 to 100 nM,< 10 nM,100 to 1000 nM
"[2H]C([2H])([2H])NS(=O)(=O)c1ccc(Nc2ncc(Cl)c(OC3COCC3(C)O)n2)cc1 (single isomer, unassigned) [Example 140a]",100 to 1000 nM,10 to 100 nM,100 to 1000 nM,100 to 1000 nM,< 10 nM,100 to 1000 nM
"CC1(O)COCCC1Oc1nc(NC2CCN(S(C)(=O)=O)CC2)ncc1C#N (single isomer, unassigned) [Example 45a]",10 to 100 nM,10 to 100 nM,10 to 100 nM,10 to 100 nM,< 10 nM,100 to 1000 nM
N#Cc1cnc(Nc2ccc(S(N)(=O)=O)cc2)nc1N1CCC[C@H](F)C1 [Example 81],≥ 1000 nM,100 to 1000 nM,10 to 100 nM,100 to 1000 nM,10 to 100 nM,100 to 1000 nM
"O=S(=O)(NC1CCOCC1)c1ccc(Nc2ncc(Cl)c(O[C@@H]3CCC[C@@H]3O)n2)cc1 (single isomer, unassigned) [Example 130a, cis-4-((5-chloro-4-((2-hydroxycyclopentyl)oxy)pyrimidin-2-yl)amino)-N-(tetrahydro-2H-pyran-4-yl)benzenesulfonamide]",100 to 1000 nM,10 to 100 nM,100 to 1000 nM,100 to 1000 nM,< 10 nM,100 to 1000 nM
"CC1CCCC(O)C1Oc1nc(Nc2ccc(S(N)(=O)=O)cc2)ncc1C(F)(F)F (single isomer, unassigned) [Example 112a]",≥ 1000 nM,10 to 100 nM,100 to 1000 nM,100 to 1000 nM,< 10 nM,100 to 1000 nM
"[2H]C([2H])([2H])NS(=O)(=O)c1ccc(Nc2ncc(C(F)(F)F)c(OC3CCCC3O)n2)cc1 (single isomer, unassigned) [Example 109a]",100 to 1000 nM,10 to 100 nM,100 to 1000 nM,100 to 1000 nM,< 10 nM,100 to 1000 nM
"[2H]C([2H])([2H])NS(=O)(=O)c1ccc(Nc2ncc(C(=C)F)c(O[C@@H]3CCC[C@@H]3O)n2)cc1 (single isomer, unassigned) [Example 135a, cis-4-((5-(1-fluorovinyl)-4-((2-hydroxycyclopentyl)oxy)pyrimidin-2-yl)amino)-N-(methyl-d3)benzenesulfonamide]",100 to 1000 nM,10 to 100 nM,100 to 1000 nM,100 to 1000 nM,< 10 nM,100 to 1000 nM
"Cn1cc(S(=O)(=O)N2CCC(Nc3ncc(Br)c(OC4CCCCC4O)n3)CC2)cn1 (single isomer, unassigned) [Example 144b]",100 to 1000 nM,10 to 100 nM,10 to 100 nM,10 to 100 nM,< 10 nM,100 to 1000 nM
"C[C@]1(O)CCC[C@H]1Oc1nc(NC2CCN(S(C)(=O)=O)CC2)ncc1C#N (relative stereo) [Example 3b, cis-4-((2-hydroxy-2-methylcyclopentyl)oxy)-2-((1-(methylsulfonyl)piperidin-4-yl)amino)pyrimidine-5-carbonitrile]",10 to 100 nM,10 to 100 nM,< 10 nM,< 10 nM,< 10 nM,100 to 1000 nM
"[2H]C([2H])([2H])NS(=O)(=O)c1ccc(Nc2ncc(C(F)(F)F)c(O[C@H]3CCOC[C@H]3O)n2)c(F)c1 (single isomer, unassigned) [Example 101a, cis-3-fluoro-4-((4-((3-hydroxytetrahydro-2H-pyran-4-yl)oxy)-5-(trifluoromethyl)pyrimidin-2-yl)amino)-N-(methyl-d3)benzenesulfonamide]",≥ 1000 nM,100 to 1000 nM,≥ 1000 nM,≥ 1000 nM,< 10 nM,≥ 1000 nM
N#Cc1cnc(Nc2ccc(S(N)(=O)=O)cc2)nc1N1CCC(O)CC1 [Example 82],≥ 1000 nM,100 to 1000 nM,100 to 1000 nM,100 to 1000 nM,10 to 100 nM,100 to 1000 nM
Cn1cc(S(=O)(=O)N2CCC(Nc3ncc(C#N)c(OC4CC5(CCC5)C4)n3)CC2)cn1 [Example 59],100 to 1000 nM,10 to 100 nM,< 10 nM,10 to 100 nM,< 10 nM,100 to 1000 nM
"Cc1cnc(Nc2ccc(S(N)(=O)=O)cc2)nc1O[C@@H]1CCC[C@@H]1O (single isomer, unassigned) [Example 132a, cis-4-((4-((2-hydroxycyclopentyl)oxy)-5-methylpyrimidin-2-yl)amino)benzenesulfonamide]",100 to 1000 nM,100 to 1000 nM,100 to 1000 nM,100 to 1000 nM,< 10 nM,100 to 1000 nM
"CC1(O)CCCC1Oc1nc(NC2CCN(S(=O)(=O)CF)CC2)ncc1C#N (single isomer, unassigned) [Example 37a]",10 to 100 nM,10 to 100 nM,< 10 nM,10 to 100 nM,< 10 nM,100 to 1000 nM
"CC1(O)CCCC1Oc1nc(Nc2ccc(S(N)(=O)=O)cc2)ncc1C#N (single isomer, unassigned) [Example 23a]",100 to 1000 nM,< 10 nM,10 to 100 nM,10 to 100 nM,< 10 nM,10 to 100 nM
"N#Cc1cnc(Nc2ccc(S(N)(=O)=O)cc2)nc1OC1CCCC1O (single isomer, unassigned) [Example 20a]",≥ 1000 nM,100 to 1000 nM,100 to 1000 nM,100 to 1000 nM,< 10 nM,100 to 1000 nM
"[2H]C([2H])([2H])NS(=O)(=O)c1ccc(Nc2ncc(C(F)(F)F)c(OC3COCCC3O)n2)cc1 (single isomer, unassigned) [Example 117a]",100 to 1000 nM,10 to 100 nM,100 to 1000 nM,100 to 1000 nM,< 10 nM,100 to 1000 nM
"[2H]C([2H])([2H])NS(=O)(=O)c1ccc(Nc2ncc(Br)c(OC3CCCC3O)n2)cc1 (single isomer, unassigned) [Example 143a]",100 to 1000 nM,10 to 100 nM,100 to 1000 nM,10 to 100 nM,< 10 nM,100 to 1000 nM
N#Cc1cnc(Nc2ccc(S(N)(=O)=O)cc2)nc1N1CCCCCC1 [Example 68],≥ 1000 nM,10 to 100 nM,10 to 100 nM,10 to 100 nM,< 10 nM,10 to 100 nM
